Data from PMC2877039 (Developmental cell, 2010).

How the values were obtained:
Test in all cases: liposome co-sedimentation, anti-Sec2 western blot
Assay type in all cases: binding
Sec2p [1] = molecular target: T1, Sec2p (Saccharomyces cerevisiae, UniProt P17065); details: read-out: approximate Kd; GST-Sec2p; 0.05-0.5 mM liposomes with 10 mol% PI4P; PBS, 0.4 mg/ml BSA, 25 °C
T1 sequence (P17065 1-759): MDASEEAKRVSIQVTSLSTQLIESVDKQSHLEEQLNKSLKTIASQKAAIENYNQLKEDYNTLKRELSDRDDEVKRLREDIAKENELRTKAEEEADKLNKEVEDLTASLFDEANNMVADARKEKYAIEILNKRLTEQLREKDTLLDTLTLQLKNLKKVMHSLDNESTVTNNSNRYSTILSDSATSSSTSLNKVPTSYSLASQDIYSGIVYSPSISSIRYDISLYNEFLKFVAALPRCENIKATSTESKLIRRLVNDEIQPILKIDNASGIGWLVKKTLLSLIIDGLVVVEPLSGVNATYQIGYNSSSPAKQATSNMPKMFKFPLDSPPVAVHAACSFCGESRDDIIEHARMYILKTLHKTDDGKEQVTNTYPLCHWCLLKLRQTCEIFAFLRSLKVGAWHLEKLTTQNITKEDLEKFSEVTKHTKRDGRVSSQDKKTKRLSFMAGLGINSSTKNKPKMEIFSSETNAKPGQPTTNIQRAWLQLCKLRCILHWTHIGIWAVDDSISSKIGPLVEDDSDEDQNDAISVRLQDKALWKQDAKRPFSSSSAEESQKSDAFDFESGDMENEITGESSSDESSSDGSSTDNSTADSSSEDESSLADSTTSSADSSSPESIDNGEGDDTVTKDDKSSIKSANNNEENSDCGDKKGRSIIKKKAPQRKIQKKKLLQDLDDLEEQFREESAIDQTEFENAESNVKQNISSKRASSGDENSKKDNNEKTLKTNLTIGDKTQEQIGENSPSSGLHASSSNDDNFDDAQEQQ

Sec2p [2] = molecular target: T1, Sec2p; details: GST-Sec2; liposomes with 10 mol% PI4P; PBS, 0.4 mg/ml BSA, 25 °C
Sec2p [3] = molecular target: T1, Sec2p; details: GST-Sec2; liposomes with 10 mol% PI4P; PBS, 0.4 mg/ml BSA, 25 °C; remark: listed apart in the source
Sec2p [4] = molecular target: T1, Sec2p; details: GST-Sec2; liposomes with 10 mol% PI4P; PBS, 0.4 mg/ml BSA, 25 °C; remark: listed apart in the source

PI4P
Kd (Sec2p [1]): ~185 µM
PI4P-binding affinity, % of wildtype (Sec2p [2]): ~ 30%
PI4P-binding affinity, % of wildtype (Sec2p [3]): ~ 30%
PI4P-binding, % of wildtype (Sec2p [4]): ~ 10%
